What was measured:
[1] = system: E. coli MG1655; experiment: Dose response growth curve analysis (OD600), MG1655; type: cell-based
Description: To perform an initial test of the sensors' ability to detect response of bacteria to antibiotics, common molecular cloning strains and one pseudo-wild-type strain of E. coli were selected. TOP10, DH5α, and MG1655 strains are sensitive to kanamycin, ampicillin, or chloramphenicol in the absence of a plasmid conferring resistance. Dose response growth curve analysis was performed to determine appropriate concentrations of antibiotic to use with each strain and plasmid combination.

[2] = system: E. coli; details: final concentration 1M; positive control for cell death
Description: For experiments in which bacteria were applied to the resonator devices, cultures were harvested at late log to early stationary phase. Cells were centrifuged at 5000× g for 5 minutes then resuspended in either fresh LB medium or phosphate-buffered saline. For antibiotic treatment, 200 µg/ml kanamycin was added to cells in the sensor devices.

## NC[C@H]1O[C@H](O[C@H]2[C@H](O)[C@@H](O[C@H]3O[C@H](CO)[C@@H](O)[C@H](N)[C@H]3O)[C@H](N)C[C@@H]2N)[C@H](O)[C@@H](O)[C@@H]1O [kanamycin]
[1]; E. coli MG1655 without plasmid, full 24 hr culture time, OD600, FIG. 17
  minimum concentration that completely blocked growth: 25 µg/mL

## CC1(C)S[C@@H]2[C@H](NC(=O)[C@H](N)c3ccccc3)C(=O)N2[C@H]1C(=O)O [ampicillin]
[1]; E. coli MG1655 cultures, varying doses, OD600, FIG. 16B
  concentration at which growth inhibition was observed: more than 1.56 μg/mL

## [Na+].[OH-] [sodium hydroxide]
[2]
  lysis of bacteria: Complete lysis
